{"source": "patent US20070212360A1", "about": "“Modulation of mitochondrial oxygen consumption for therapeutic purposes” (priority 2006, published 2007)", "key": {"[1]": {"tested_on": "Su.86 tumors", "assay": "Tumor growth delay, Su.86 xenografts", "format": "in vivo, mouse", "conditions": "tirapazamine followed by echinomycin at 24 hours, 6 cycles; compared to echinomycin followed by tirapazamine", "method": "(§1) FIG. 10. Pharmacologic inhibition of HIF1 or PDK1 enhances the response of tumor xenografts to the hypoxic cytotoxin tirapazamine. For all experiments, treatment was initiated when the mean tumor volume was 100-200 mm^3. (a) RKO tumor bearing mice were treated with 0.12 mg/kg echinomycin ip followed by 30 mg/kg tirapazamine ip at 24 hours, followed by a rest day for 3 cycles. Single agents were given at the same dose, on the same schedule. (b) RKO tumor bearing mice were treated with 50 mg/kg DCA ip followed by 20 mg/kg tirapazamine ip at 4 hours daily for 14 days. Single agents were given at the same dose, on the same schedule. (c,d,e) RKO (c), RKOShHIF1α (d), or Su.86 (e) tumor bearing mice were treated with echinomycin plus tirapazamine as described above for 6 cycles (Ech+TPZ), or tirapazamine followed by echinomycin at 24 hours followed by a rest day for 6 cycles (TPZ+Ech). For all experiments, arrows indicate when treatment was stopped.\nCell lines and tumor xenografts. RKO human colon carcinoma cells and Su.86 human pancreatic carcinoma cells were obtained from the American Type Culture Collection (ATCC, Manassas, Va.). The RKOShHIF1α cell line in which HIF1α is stably knocked down by shRNA has been described previously. RKO and immortalized MEF cells were grown in Dulbecco's Modified Eagle's Media (DMEM) supplemented with 10% fetal bovine serum (FBS). […]"}, "[2]": {"tested_on": "HIF1 targets PDK1, Bnip3, and Bnip3L in RKO and Su.86 human tumor cells", "assay": "Western blot of HIF1 target proteins in hypoxic tumor cells", "format": "cell-based", "conditions": "RKO and Su.86 cells, 0.5% O2 24 h, 2 ng/ml echinomycin", "method": "FIG. 7. Inhibition of HIF1 and PDK1 increases oxygen consumption in vitro and in vivo. (a) Western blots of extracts from RKO and Su.86 cells exposed to normoxia (N) or hypoxia (H) (0.5% O2) for 24 h in the presence or absence of 2 ng/ml echinomycin probed for the indicated proteins. (b) Oxygen consumption rates of RKO and RKOShHIF1α cells (left) and Su.86 cells (right) after 24 h treatment with normoxia or hypoxia (0.5% O2) with or without 2 ng/ml echinomycin. Data are normalized to normoxic samples. (c) Relative oxygen consumption of RKO cells treated with hypoxia (0.5% O2) for 24 h in the presence of increasing concentrations of echinomycin. (d) Oxygen consumption rates of freshly explanted tumor tissue from RKO (n=16) and RKOShHIF1α (n=8) xenografts. (e) Oxygen consumption rates of RKO and RKOShHIF1 tumors from mice treated with 0.12 mg/kg echinomycin ip 24 h prior (n=8), or 50 mg/kg DCA ip 4 h prior (n=8). […]\nWestern blots. In brief, cells were harvested directly in RIPA buffer containing protease inhibitors, protein concentrations were quantified (Pierce), 25-50 μg of total protein was electrophoresed on a reducing Tris-Tricine gel, and electroblotted to PVDF membrane. […] Primary antibodies were detected with species-specific secondary antibodies labeled with Alkaline Phosphatase (Vector labs) (1:3000) and visualized with ECF (Amersham) on a Storm 860 phosphoimager (Molecular Devices)."}, "[3]": {"tested_on": "RKO and RKOShHIF1α tumors", "assay": "Tumor growth delay, RKO and RKOShHIF1α xenografts", "format": "in vivo, mouse", "method": "as §1\nCell lines and tumor xenografts. RKO human colon carcinoma cells and Su.86 human pancreatic carcinoma cells were obtained from the American Type Culture Collection (ATCC, Manassas, Va.). The RKOShHIF1α cell line in which HIF1α is stably knocked down by shRNA has been described previously. RKO and immortalized MEF cells were grown in Dulbecco's Modified Eagle's Media (DMEM) supplemented with 10% fetal bovine serum (FBS). Su.86 cells were grown in RPMI 1640 medium supplemented with 10% FBS. Cells were exposed to hypoxia by placing culture dishes into an Invivo2 humidified hypoxia workstation (Ruskin Technologies, Bridgend, UK) at 0.5% O2. Echinomycin (a gift of A. Giaccia, Stanford University) was included in the media at the indicated concentrations. Tumor xenografts were established by injecting 5×10^6 cells for the RKO lines or 1×10^7 cells for the Su.86 line sc into the flanks of 6-8 week old female nude mice. To monitor tumor growth, caliper measurements were made of two perpendicular diameters, and the formula (d1)(d2)(d2)(0.52) was used to calculate tumor volume. […]"}}, "data": [{"smiles": "CS[C@H]1SC[C@H]2C(=O)N(C)[C@@H](C(C)C)C(=O)OC[C@@H](NC(=O)c3cnc4ccccc4n3)C(=O)N[C@@H](C)C(=O)N(C)[C@@H]1C(=O)N(C)[C@@H](C(C)C)C(=O)OC[C@@H](NC(=O)c1cnc3ccccc3n1)C(=O)N[C@@H](C)C(=O)N2C", "note": "[echinomycin]", "values": [{"measurement": "effect on growth of Su.86 tumors, reversed schedule", "setting": "[1]", "value": "little effect"}, {"measurement": "hypoxic induction of PDK1, Bnip3, and Bnip3L (immunoblot)", "setting": "[2]", "value": "blocked"}, {"measurement": "tumor growth delay of combination compared to single agents, RKO tumors", "setting": "[3]; 0.12 mg/kg echinomycin ip followed at 24 h by 30 mg/kg tirapazamine ip, rest day, 3 cycles", "value": "greater than additive"}, {"measurement": "effect on tumor growth, RKOShHIF1 tumors", "setting": "[3]; echinomycin plus tirapazamine, regardless of the order the drugs were given, 6 cycles", "value": "no significant effect"}, {"measurement": "effect on growth of RKO tumors, reversed schedule", "setting": "[3]; tirapazamine followed by echinomycin at 24 hours, 6 cycles, compared to echinomycin followed by tirapazamine", "value": "little effect"}]}]}
